The numbers were not newly measured in patent US7193101B2, “Esters with antimicrobial, bioresistant and fungal resistant properties” (TPAT IP, priority 2004, dated 2007), which cites them from elsewhere.

SMILES strings stand for the structures.

Data set [1] relates to various strains of both gram positive and gram negative bacteria.
The next data set concerns nematodes. The conditions noted are these: prior art U.S. Pat. No. 5,013,762.
For data set [2] the following is noted: prior art U.S. Pat. No. 5,866,511.

Turning to `O=[N+]([O-])C(Br)(CO)CO` [BNPD, 2-bromo-2-nitro-propane-1,3-diol], in the data set on fungi, the antifungal activity result is on record as “antifungal”. In data set [1] (average over gram positive and gram negative strains), the “average minimum inhibitory concentration” value is “around 25 ppm”. The “effective concentration against bacteria” value in data set [1] (various strains of gram positive and gram negative bacteria) is 1–50 ppm.
With `O=[N+]([O-])CBr` [bromonitromethane], the “effectiveness for the treatment of nematodes in the soil” value in the data set on nematodes is listed as “effective”. Moreover, the “effectiveness as a general biocide” value in data set [2] was “effective”.
